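Method: 48-hour compound exposure of cells in 96-well plates, five concentrations, linear interpolation of endpoints. GI50: concentration for 50% inhibition of growth. TGI is the concentration that stops growth completely.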
Columns and labels:
Test in all cases: NCI-60 cell line screen, 48 h
786-0 renal = system: 786-0 renal
U251 CNS = system: U251 CNS
TK-10 renal = system: TK-10 renal
UACC-62 melanoma = system: UACC-62 melanoma
LOX IMVI melanoma = system: LOX IMVI melanoma
RPMI-8226 leukemia = system: RPMI-8226 leukemia
CCRF-CEM leukemia = system: CCRF-CEM leukemia
OVCAR-3 ovarian = system: OVCAR-3 ovarian
T-47D breast = system: T-47D breast
PC-3 prostate = system: PC-3 prostate

SMILES	TGI (786-0 renal)	TGI (U251 CNS)	TGI (TK-10 renal)	TGI (UACC-62 melanoma)	TGI (LOX IMVI melanoma)	TGI (RPMI-8226 leukemia)	TGI (CCRF-CEM leukemia)	TGI (OVCAR-3 ovarian)	GI50 (T-47D breast)	TGI (T-47D breast)	GI50 (786-0 renal)	GI50 (U251 CNS)	GI50 (OVCAR-3 ovarian)	GI50 (TK-10 renal)	GI50 (PC-3 prostate)	TGI (PC-3 prostate)	GI50 (UACC-62 melanoma)	GI50 (LOX IMVI melanoma)	GI50 (RPMI-8226 leukemia)	GI50 (CCRF-CEM leukemia)
O=C(Cc1ccccc1)N/N=C(/c1nc2ccc([N+](=O)[O-])cc2[nH]c1=O)C(O)c1ccco1 (stereo not given)	> 100 µM	> 100 µM	> 100 µM	> 100 µM	> 100 µM	> 100 µM	> 100 µM	–	–	–	–	–	–	–	–	–	–	–	–	–
OCC(O)C(OC1OC(CO)C(O)C(O)C1O)c1nn(-c2ccc(Cl)cc2)c2nc3cc(Cl)c(Cl)cc3nc12 (stereo not given)	> 100 µM	> 100 µM	> 100 µM	> 100 µM	> 100 µM	> 100 µM	> 100 µM	> 100 µM	–	–	–	–	–	–	–	–	–	–	–	–
O=C(/C=C/c1cc(O)ccc1O)c1ccc(Cl)cc1	61 µM	51.2 µM	> 100 µM	40.1 µM	48.4 µM	–	–	> 100 µM	36.5 µM	> 100 µM	17.8 µM	19.6 µM	57.7 µM	31.6 µM	90.4 µM	> 100 µM	17.5 µM	18.4 µM	–	–
C=CC(=O)N1CCC(CNc2ncnc(N)c2-c2ccc(Oc3ccccc3)cc2)CC1	92.9 µM	> 100 µM	> 100 µM	34.8 µM	33.2 µM	42.6 µM	> 100 µM	85.1 µM	–	–	17.7 µM	25.7 µM	27.6 µM	21.4 µM	24.9 µM	> 100 µM	16 µM	16.3 µM	15.1 µM	27.2 µM
CC(C(=O)c1ccc(O)cc1)C1(O)C(=O)Nc2c(Cl)cc(Cl)cc21 (stereo not given)	> 100 µM	> 100 µM	> 100 µM	21.7 µM	> 67.8 µM	71.5 µM	74.7 µM	> 84.3 µM	–	–	–	–	–	–	–	–	–	–	–	–
[N-]=[N+]=Nc1nnc(CCCCc2nnc(N=[N+]=[N-])o2)o1	> 100 µM	> 100 µM	> 100 µM	> 100 µM	> 100 µM	–	> 100 µM	> 100 µM	–	–	–	–	–	–	–	–	–	–	–	–
CCN1C(=O)N[C@H]2[C@@H]3NC(=O)c4ccc(Cl)n4[C@@H]3C[C@]21O	9.06 µM	13.5 µM	12.5 µM	–	1.3 µM	2.08 µM	1.25 µM	10.3 µM	0.222 µM	0.933 µM	0.902 µM	0.329 µM	0.542 µM	1.66 µM	1.68 µM	11.2 µM	–	0.279 µM	0.363 µM	0.224 µM
Clc1ccc2c(NCCNc3nc(N4CCCCC4)nc4ccccc34)ccnc2c1	2.78 µM	5.15 µM	5.13 µM	3.7 µM	3.36 µM	–	45.4 µM	3.65 µM	2.17 µM	6.11 µM	1.31 µM	2.08 µM	1.75 µM	2.15 µM	3.17 µM	14.4 µM	1.95 µM	1.58 µM	–	1.99 µM
